The values that follow are results of earlier work, collected in patent publication US20260137744A1, “MELATONIN-ENRICHED COMPOSITION OF PISTACIA VERA (PISTACHIO) AND A METHOD OF PREPARATION THEREOF” (Network Nutrition Pty Limited, priority 2024, published 2026).

For the compound `COc1ccc2[nH]cc(CCNC(C)=O)c2c1` [melatonin], the “peak concentration in the bloodstream, time after oral dosage” value (after oral dosage) was “approximately 50 minutes”. Under “oral melatonin, average, varies significantly among individuals”, the bioavailability result was “around 15%”.
